Assay results published in patent US20120232044A1, “METHODS AND COMPOSITIONS FOR TREATING HYPERURICEMIA AND METABOLIC DISORDERS ASSOCIATED WITH HYPERURICEMIA” (TWi Biotechnology, Inc., priority 2011, published 2012).

Experiments:
[1] = test system: subjects with chronic gout and hyperuricemia; assay: Case study of diacerein and allopurinol combination therapy in subjects with chronic gout and hyperuricemia; format: in vivo, human; details: for blood level of uric acid: visit 1 before diacerein
Protocol: In DIA-DM01 trial described in Example 1, two subjects enrolled in the diacerein group had chronic gout history and were currently treating with allopurinol.
Case 1: A person with history of chronic gout and hyperuricemia was treated with allopurinol since Jan. 2, 2009. Before they were enrolled in the diacerein trial, their medical treatment was unsatisfactory, and their blood level of uric acid was 8.3 mg/dL in visit 1 (Jul. 8, 2009).
Case 2: A person with history of chronic gout and hyperuricemia was treated with allopurinol since Aug. 27, 2009. Before they were enrolled in the diacerein trial, their medical treatment was also unsatisfactory, and their blood level of uric acid was 9.5 mg/dL in visit 1 (Dec. 18, 2009).

[2] = test system: type 2 diabetes patients with micro-albuminuria, hyperuricemia sub-group (baseline blood uric acid higher than 7.0 mg/dL); assay: DIA-DM01 trial, hyperuricemia sub-group: blood uric acid level under diacerein 50 mg bid versus placebo; format: in vivo, human; details: for patients whose blood uric acid levels achieved normal range: normal: females below 6.0 mg/dL, males below 7.0 mg/dL
From the text: Objectives: To evaluate the efficacy and safety of diacerein for the treatment of albuminuria in patients with type 2 diabetes mellitus.
Primary Endpoints: To compare the change from baseline in the urinary albumin to creatinine ratio (UACR) after 24 weeks of diacerein or placebo administrated.
Subjects: Male or female type 2 diabetes patients (BMI≦35 kg/m^2) with micro-albuminuria.
Procedure: This was a Phase II, prospective, randomized, double-blind, and parallel comparison study comparing diacerein 50 mg bid (twice a day) versus placebo to albuminuria in patients with type 2 diabetes mellitus.
At the screening visit, patients who fulfilled the enrollment criteria and gave written informed consent entered a three to ten days screening period. During the screening period, the baseline UACR was evaluated. If the baseline UACR was greater than 50 mg/g, the patients were randomized into the […] treatment period in the 1:1 ratio (diacerein versus placebo). All participants were required to be taking stable dose of angiotensin-converting-enzyme (ACE) inhibitors, angiotensin receptor blockers (ARBs), or both, for three months prior to the study. These agents were continued throughout the trial. The hypoglycemic medications were maintained during the study period. The class and/or dosage were changed if clinically indicated. An introduction of a new treatment or any regimen change to the pre-existing co-medication that had hypoglycemic or hyperglycemic potential was allowed during the study with the consent of the clinical investigator.
The hyperuricemia sub-group was assembled from among the subjects with baseline blood uric acid level higher than 7.0 mg/dL. The results of blood uric acid level in the two treatment groups were analyzed by paired t-test of within-group changes.
Subjects (n=76) with diabetic microalbinuria were randomized in a 1:1 ratio to receive twice-daily diacerein 50 mg (n=38), or placebo (n=38) for 24 weeks. The baseline blood levels of uric acid in nine subjects of the diacerein group (2 females and 7 males) and twelve subjects of the placebo group (2 females and 10 males) in the hyperuricemia subgroup were above 7.0 mg/dL, and the mean levels were 8.06 mg/dL and 8.38 mg/dL respectively.

SMILES: Oc1ncnc2[nH]ncc12 [allopurinol]
- blood level of uric acid ([1]; Case 1, on allopurinol alone): 8.3 mg/dL
- blood level of uric acid ([1]; Case 2, on allopurinol alone): 9.5 mg/dL

SMILES: CC(=O)Oc1cccc2c1C(=O)c1c(OC(C)=O)cc(C(=O)O)cc1C2=O [diacerein, 4,5-bis(acetyloxy)-9,10-dioxo-2-anthracene carboxylic acid]
- patients whose blood uric acid levels achieved normal range ([2]; 24-week treatment with diacerein): four of the remaining seven patients
- Uric Acid, Mean ([2]; Baseline (before treatment), diacerein group, N=9): 8.06 mg/dL
- Uric Acid, Mean ([2]; Baseline (before treatment), diacerein group, N=9, listed as Diacerein): 8.0667 mg/dL
- patients whose blood uric acid levels achieved normal range ([2]; after 12 weeks of diacerein): six of the nine patients
- blood uric acid levels maintained during the treatment period ([2]; diacerein 50 mg bid, below the upper end of the normal range): below 7.0 mg/dL
- Uric Acid, Mean ([2]; week 12, diacerein 50 mg bid, N=9): 6.6667 mg/dL
- Uric Acid, Change from baseline ([2]; week 12, diacerein 50 mg bid, N=9, p=0.0037 vs. baseline): -1.40 mg/dL
- Uric Acid, Mean ([2]; week 24, diacerein 50 mg bid, N=7): 6.5571 mg/dL
- Uric Acid, Change from baseline ([2]; week 24, diacerein 50 mg bid, N=7, p=0.0060 vs. baseline): -1.34 mg/dL
- blood uric acid level ([1]; Case 1, after 24 weeks of diacerein add-on to allopurinol): 7.5 mg/dL
- acute flares during the treatment period ([1]; Case 1, diacerein add-on to allopurinol, 24 weeks): No acute flares were observed
- blood uric acid level ([1]; Case 2, after 12 weeks of diacerein add-on to allopurinol): 6.4 mg/dL
